Data taken from BindingDB's records for doi:10.1016/j.bmcl.2008.03.027 (Scripps Florida, 2008).
pEC50: −log10 of the molar value.

What follows are molecules tested against Steroidogenic factor 1 (Homo sapiens, UniProt Q13285) (assay: Transactivation Cell-Based Assay).
Procedure: The assay was to monitor the SF-1 activation state via co-transfection of CHO-K1 cells with a plasmid encoding a Gal4-SF-1 chimerical transcription factor, pGal4DBD-SF-1-LBD, and a second plasmid driving luciferase expression under control of 5 multimerized Gal4 binding sites. The assay began by dispensing transfected cell suspension to each well (4,000 cells / well) of a white solid-bottom 1536-well plate. One hour after seeding, cells were treated with test compounds or DMSO alone (high control). The -NR cells (not co-transfected with nuclear receptor) were treated with DMSO (low control). After incubation, the luciferase assay was performed, and light emission was measured for 30 seconds with the ViewLux reader (PerkinElmer, Turku, Finland). Activity of each compound was calculated using the equation: Percent inhibition of compound=100 x (1-(test well-low control)/ (high control-low control)) EC50/IC50 is the concentration of test compound to exert 50% inhibition.

Steroidogenic factor 1, sequence (Q13285 whole entry, the tested form may be a part): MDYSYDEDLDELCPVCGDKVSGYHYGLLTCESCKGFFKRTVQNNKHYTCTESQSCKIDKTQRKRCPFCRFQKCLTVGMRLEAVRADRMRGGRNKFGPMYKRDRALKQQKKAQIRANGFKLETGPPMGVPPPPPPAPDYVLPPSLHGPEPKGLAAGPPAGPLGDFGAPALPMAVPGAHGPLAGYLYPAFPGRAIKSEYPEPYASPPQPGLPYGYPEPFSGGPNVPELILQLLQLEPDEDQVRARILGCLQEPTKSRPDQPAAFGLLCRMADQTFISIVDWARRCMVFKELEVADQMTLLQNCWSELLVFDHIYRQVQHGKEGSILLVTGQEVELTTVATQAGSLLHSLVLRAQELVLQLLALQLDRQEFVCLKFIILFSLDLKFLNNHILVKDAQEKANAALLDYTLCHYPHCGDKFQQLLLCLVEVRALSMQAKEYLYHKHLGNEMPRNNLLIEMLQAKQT

| pEC50 | SMILES |
| --- | --- |
| 6.06 | CCCCC(C)Oc1cccc2c(=O)n(CC(=O)Nc3ccc4c(c3)OCCO4)ccc12 (stereo unspecified) [N-(2,3-dihydro-1,4-benzodioxin-6-yl)-2-[5-(hexan-2-yloxy)-1-oxo-1,2-dihydroisoquinolin-2-yl]acetamide] |
| 6.23 | CCOC(=O)C(C)(C)Oc1cccc2c(=O)n(CC(=O)Nc3ccc4c(c3)OCCO4)ccc12 [ethyl 2-({2-[(2,3-dihydro-1,4-benzodioxin-6-ylcarbamoyl)methyl]-1-oxo-1,2-dihydroisoquinolin-5-yl}oxy)-2-methylpropanoate] |
| 5.97 | CCOC(=O)C(C)Oc1cccc2c(=O)n(CC(=O)NCc3ccccc3)ccc12 (stereo unspecified) [ethyl 2-({2-[(benzylcarbamoyl)methyl]-1-oxo-1,2-dihydroisoquinolin-5-yl}oxy)propanoate] |
| 5.75 | CCOC(=O)C(C)Oc1cccc2c(=O)n(CC(=O)NC3CCCCC3)ccc12 (stereo unspecified) [ethyl 2-({2-[(cyclohexylcarbamoyl)methyl]-1-oxo-1,2-dihydroisoquinolin-5-yl}oxy)propanoate] |
| 5.45 | CCOC(=O)C(C)Oc1cccc2c(=O)n(CC(=O)N(C)c3ccc4c(c3)OCCO4)ccc12 (stereo unspecified) [ethyl 2-[(2-{[2,3-dihydro-1,4-benzodioxin-6-yl(methyl)carbamoyl]methyl}-1-oxo-1,2-dihydroisoquinolin-5-yl)oxy]propanoate] |
| 6.59 | CCOC(=O)C(C)Oc1cccc2c(=O)n(CC(=O)NCc3ccc4c(c3)OCO4)ccc12 (stereo unspecified) [ethyl 2-[(2-{[(2H-1,3-benzodioxol-5-ylmethyl)carbamoyl]methyl}-1-oxo-1,2-dihydroisoquinolin-5-yl)oxy]propanoate] |
| 6.96 | CCOC(=O)C(C)Oc1cccc2c(=O)n(CC(=O)Nc3ccc(CC)cc3)ccc12 (stereo unspecified) [ethyl 2-[(2-{[(4-ethylphenyl)carbamoyl]methyl}-1-oxo-1,2-dihydroisoquinolin-5-yl)oxy]propanoate] |
| 6.70 | CCOC(=O)C(C)Oc1cccc2c(=O)n(CC(=O)Nc3ccc(OC)cc3)ccc12 (stereo unspecified) [ethyl 2-[(2-{[(4-methoxyphenyl)carbamoyl]methyl}-1-oxo-1,2-dihydroisoquinolin-5-yl)oxy]propanoate] |
| 6.47 | CCOC(=O)C(C)Oc1cccc2c(=O)n(CC(=O)Nc3ccc(C)cc3)ccc12 (stereo unspecified) [ethyl 2-[(2-{[(4-methylphenyl)carbamoyl]methyl}-1-oxo-1,2-dihydroisoquinolin-5-yl)oxy]propanoate] |
| 6.28 | CCOC(=O)C(C)Oc1cccc2c(=O)n(CC(=O)Nc3ccc([N+](=O)[O-])cc3)ccc12 (stereo unspecified) [ethyl 2-[(2-{[(4-nitrophenyl)carbamoyl]methyl}-1-oxo-1,2-dihydroisoquinolin-5-yl)oxy]propanoate] |
| 5.33 | CCOC(=O)C(C)Oc1cccc2c(=O)n(CC(=O)NCc3ccco3)ccc12 (stereo unspecified) [ethyl 2-[(2-{[(furan-2-ylmethyl)carbamoyl]methyl}-1-oxo-1,2-dihydroisoquinolin-5-yl)oxy]propanoate] |

More lines, now with the values behind:

| SMILES | pEC50 |
| --- | --- |
| CCOC(=O)C(C)Oc1cccc2c(=O)n(CC(=O)Nc3ccc4c(c3)OCCO4)ccc12 (stereo unspecified) | 6.12 |
| CCCCOc1cccc2c(=O)n(CC(=O)Nc3ccc4c(c3)OCCO4)ccc12 [2-(5-butoxy-1-oxo-1,2-dihydroisoquinolin-2-yl)-N-(2,3-dihydro-1,4-benzodioxin-6-yl)acetamide] | 4.86 |
| CCC(C)Oc1cccc2c(=O)n(CC(=O)Nc3ccc4c(c3)OCCO4)ccc12 (stereo unspecified) [2-[5-(butan-2-yloxy)-1-oxo-1,2-dihydroisoquinolin-2-yl]-N-(2,3-dihydro-1,4-benzodioxin-6-yl)acetamide] | 5.10 |
| CCOC(=O)C(C)Oc1cccc2c(=O)n(CCC(=O)Nc3ccc4c(c3)OCCO4)ccc12 (stereo unspecified) [ethyl 2-({2-[2-(2,3-dihydro-1,4-benzodioxin-6-ylcarbamoyl)ethyl]-1-oxo-1,2-dihydroisoquinolin-5-yl}oxy)propanoate] | 5.07 |
| CCCCNC(=O)Cn1ccc2c(OC(C)C(=O)OCC)cccc2c1=O (stereo unspecified) [ethyl 2-({2-[(butylcarbamoyl)methyl]-1-oxo-1,2-dihydroisoquinolin-5-yl}oxy)propanoate] | 5.01 |
| CCOC(=O)C(C)Oc1cccc2c(=O)n(CC(=O)NCCc3ccccc3)ccc12 (stereo unspecified) [ethyl 2-[(1-oxo-2-{[(2-phenylethyl)carbamoyl]methyl}-1,2-dihydroisoquinolin-5-yl)oxy]propanoate] | 6.44 |
| CCCCc1ccc(NC(=O)Cn2ccc3c(OC(C)C(=O)OCC)cccc3c2=O)cc1 (stereo unspecified) [ethyl 2-[(2-{[(4-butylphenyl)carbamoyl]methyl}-1-oxo-1,2-dihydroisoquinolin-5-yl)oxy]propanoate] | 6.44 |
| CCOC(=O)C(C)Oc1cccc2c(=O)n(CC(=O)Nc3ccc(OCC)cc3)ccc12 (stereo unspecified) [ethyl 2-[(2-{[(4-ethoxyphenyl)carbamoyl]methyl}-1-oxo-1,2-dihydroisoquinolin-5-yl)oxy]propanoate] | 6.72 |
| CCOC(=O)C(C)Oc1cccc2c(=O)n(CC(=O)Nc3ccc(OC(F)(F)F)cc3)ccc12 (stereo unspecified) [ethyl 2-{[1-oxo-2-({[4-(trifluoromethoxy)phenyl]carbamoyl}methyl)-1,2-dihydroisoquinolin-5-yl]oxy}propanoate] | 6.70 |
| CCOC(=O)C(C)Oc1cccc2c(=O)n(CC(=O)NCc3ccc(F)cc3)ccc12 (stereo unspecified) [ethyl 2-{[2-({[(4-fluorophenyl)methyl]carbamoyl}methyl)-1-oxo-1,2-dihydroisoquinolin-5-yl]oxy}propanoate] | 6.17 |
